Test results as given in ChEMBL document CHEMBL5360614, “Quinoline Thiourea-Based Zinc Ionophores with Antibacterial Activity” (J Med Chem, 2023).
≈ marks a conversion by molar mass, not a printed value.

Columns and labels:
Assay type in all cases: functional
Staphylococcus aureus [1] = assay: (§1) Antibacterial activity against gentamicin-and methicillin-resistant Staphylococcus aureus ATCC 33592 assessed as reduction in bacterial growth incubated for 14 to 16 hrs in presence of 1 uM 1-(2-(1H-benzo[d]imidazol-1-yl)quinolin-8-yl)-3-(3,5-bis(trifluoromethyl)phenyl)thiourea and 100 uM ZnCl2 by microbroth dilution method; settings: time 14-16 hrs
Staphylococcus aureus [2] = assay: as §1, with “200” for “100”; settings: time 14-16 hrs
Staphylococcus aureus [3] = assay: Antibacterial activity against gentamicin-and methicillin-resistant Staphylococcus aureus ATCC 33592 assessed as reduction in bacterial growth incubated for 14 to 16 hrs in presence of 200 uM ZnCl2 by microbroth dilution method; settings: time 14-16 hrs
Staphylococcus aureus [4] = assay: Antibacterial activity against gentamicin-and methicillin-resistant Staphylococcus aureus ATCC 33592 assessed as reduction in bacterial growth incubated for 14 to 16 hrs in presence of 1 uM 1-(2-(1H-benzo[d]imidazol-1-yl)quinolin-8-yl)-3-(3,5-bis(trifluoromethyl)phenyl)thiourea by microbroth dilution method; settings: time 14-16 hrs
Staphylococcus aureus [5] = assay: Antibacterial activity against gentamicin-and methicillin-resistant Staphylococcus aureus ATCC 33592 assessed as reduction in bacterial growth incubated for 14 to 16 hrs by microbroth dilution method; settings: time 14-16 hrs
Staphylococcus aureus [6] = assay: Potency index, ratio of compound MIC to compound MIC in presence of 1 uM 1-(2-(1H-benzo[d]imidazol-1-yl)quinolin-8-yl)-3-(3,5-bis(trifluoromethyl)phenyl)thiourea and 200 uM ZnCl2 for antibacterial activity against gentamicin-and methicillin-resistant Staphylococcus aureus ATCC 33592
Staphylococcus aureus [7] = assay: Antibacterial activity against Staphylococcus aureus MTCC-96 assessed as reduction in bacterial growth incubated for 14 to 16 hrs by microbroth dilution method; settings: time 14-16 hrs
Escherichia coli = assay: Antibacterial activity against Escherichia coli MTCC 1687 assessed as reduction in bacterial growth incubated for 14 to 16 hrs by microbroth dilution method; settings: time 14-16 hrs

Compound	MIC (Staphylococcus aureus [1]) [µM]	MIC (Staphylococcus aureus [2]) [µM]	MIC (Staphylococcus aureus [3]) [µM]	MIC (Staphylococcus aureus [4]) [µM]	MIC (Staphylococcus aureus [5]) [µM]	Ratio (Staphylococcus aureus [6])	MIC (Staphylococcus aureus [7]) [µM]	MIC (Escherichia coli) [µM]
CC(C)(O/N=C(\C(=O)N[C@@H]1C(=O)N2C(C(=O)[O-])=C(C[n+]3ccccc3)CS[C@H]12)c1csc(N)n1)C(=O)O [CEFTAZIDIME]	5.7	0.15	229	229	229 (≈ 125 µg/mL)	1524	–	–
FC(F)(F)c1cc(NC(=S)Nc2cccc3ccc(-n4ccnc4)nc23)cc(C(F)(F)F)c1	–	–	–	–	12.5 (≈ 6.02 µg/mL)	–	12.5 (≈ 6.02 µg/mL)	> 50
CC1(C)S[C@@H]2[C@H](NC(=O)[C@H](N)c3ccc(O)cc3)C(=O)N2[C@H]1C(=O)O [AMOXICILLIN]	4.09	0.05	17	17	17 (≈ 6.21 µg/mL)	341	–	–
CN(C)[C@@H]1C(O)=C(C(N)=O)C(=O)[C@@]2(O)C(O)=C3C(=O)c4c(O)cccc4[C@@](C)(O)[C@H]3C[C@@H]12 [TETRACYCLINE]	0.87	0.18	168	168	168 (≈ 74.7 µg/mL)	933	–	–
FC(F)(F)c1cc(NC(=S)Nc2cccc3ccc(-n4ccc5ccccc54)nc23)cc(C(F)(F)F)c1	–	–	–	–	6.25 (≈ 3.32 µg/mL)	–	6.25 (≈ 3.32 µg/mL)	> 50
CUPRIC CHLORIDE	–	–	–	–	–	–	1870	–
S=C(Nc1ccccc1)Nc1cccc2cccnc12	–	–	–	–	> 50	–	> 25	> 50
NC[C@H]1O[C@H](O[C@H]2[C@H](O)[C@@H](O[C@H]3O[C@H](CO)[C@@H](O)[C@H](N)[C@H]3O)[C@H](N)C[C@@H]2N)[C@H](O)[C@@H](O)[C@@H]1O [KANAMYCIN]	6.44	0.31	155	155	155 (≈ 75.1 µg/mL)	499	–	–
[Cl-].[Cl-].[Zn+2] [ZINC CHLORIDE]	–	–	–	–	1560	–	1560	2000
